Assay results from ChEMBL document CHEMBL1201862, “PubChem BioAssay data set” (2004).
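Compound exposure: 48 hours, 5 concentrations, 96-well plates. At the GI50, growth is halved.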 Calls of active or inactive are those of the source. No stated cut-off is given here; in the data, active = GI50 up to about 1.1 µM and inactive = higher.

Experiments:
Test in all cases: inhibition of tumour cell growth, NCI panel, 48 h
Malme-3M = tested on: Malme-3M
HOP-62 = tested on: HOP-62
TK-10 = tested on: TK-10
DMS-114 = tested on: DMS-114
SK-MEL-28 = tested on: SK-MEL-28
786-0 = tested on: 786-0
K562 = tested on: K562
NCI-H522 = tested on: NCI-H522
HL-60 = tested on: HL-60
COLO 205 = tested on: COLO 205
SK-MEL-2 = tested on: SK-MEL-2
RXF 393 = tested on: RXF 393
SN12C = tested on: SN12C
HCT-116 = tested on: HCT-116
SF-295 = tested on: SF-295
M14 = tested on: M14
HT-29 = tested on: HT-29

Measured: GI50

CC(=O)O[C@]1(C)OC(=O)[C@@H](CC(C)C)N1[N+](=O)[O-]
inactive: Malme-3M > 100 µM | HOP-62 > 100 µM | TK-10 > 100 µM | DMS-114 > 100 µM | SK-MEL-28 > 100 µM | 786-0 > 100 µM | K562 > 100 µM | NCI-H522 > 100 µM | HL-60 > 100 µM | COLO 205 > 100 µM | SK-MEL-2 > 100 µM | RXF 393 60.7 µM | SN12C > 100 µM | HCT-116 > 100 µM | SF-295 > 100 µM | M14 > 100 µM | HT-29 > 100 µM

CCOc1ccc(/N=C\c2cc(OC)c(OC)c(OC)c2)cc1
inactive: Malme-3M > 100 µM | HOP-62 > 100 µM | TK-10 > 100 µM | DMS-114 > 100 µM | SK-MEL-28 > 100 µM | 786-0 > 100 µM | K562 52.5 µM | NCI-H522 > 100 µM | HL-60 > 100 µM | SK-MEL-2 > 100 µM | RXF 393 2.08 µM | SN12C > 100 µM | HCT-116 > 100 µM | SF-295 > 100 µM | M14 > 100 µM | HT-29 > 100 µM

[O-][S+]1Nc2cccc(C(F)(F)F)c2S1 (stereo not given)
inactive: Malme-3M 51.2 µM | HOP-62 49.8 µM | TK-10 34.4 µM | DMS-114 20.1 µM | SK-MEL-28 > 100 µM | 786-0 42.1 µM | K562 31.3 µM | NCI-H522 28.1 µM | HL-60 7.66 µM | COLO 205 19.8 µM | SK-MEL-2 24.3 µM | RXF 393 22.5 µM | SN12C 35.6 µM | HCT-116 27.3 µM | SF-295 45.4 µM | M14 65.3 µM | HT-29 35.7 µM

CC(C)N1CC2CC(CN(C(=O)c3ccccc3)C2)C1.[O-][Cl+3]([O-])([O-])O
inactive: Malme-3M > 100 µM | HOP-62 > 100 µM | TK-10 > 100 µM | DMS-114 > 100 µM | SK-MEL-28 > 100 µM | 786-0 > 100 µM | K562 > 100 µM | NCI-H522 > 100 µM | HL-60 > 100 µM | COLO 205 > 100 µM | SK-MEL-2 > 100 µM | RXF 393 > 100 µM | SN12C > 100 µM | SF-295 > 100 µM | M14 > 100 µM | HT-29 > 100 µM

CC1=C(C(=O)Nc2cc(F)c(F)cc2F)C(c2ccc3c(c2)OCO3)C(C(=O)Nc2cc(F)c(F)cc2F)=C(C)N1
inactive: Malme-3M 23.3 µM | HOP-62 16.8 µM | TK-10 23.9 µM | DMS-114 17.7 µM | SK-MEL-28 33.2 µM | 786-0 18.3 µM | K562 17.9 µM | NCI-H522 14.9 µM | HL-60 13.8 µM | COLO 205 21.8 µM | SK-MEL-2 18 µM | RXF 393 11.5 µM | SN12C 18.7 µM | SF-295 21.9 µM | M14 24.2 µM | HT-29 27.4 µM

O=C(c1ccc(Cl)cc1)c1ccc(OCCCCCCCCCCOc2ccc(C(=O)c3ccc(Cl)cc3)cc2)cc1
inactive: Malme-3M > 100 µM | HOP-62 > 100 µM | TK-10 > 100 µM | DMS-114 > 100 µM | SK-MEL-28 > 100 µM | 786-0 > 100 µM | K562 > 100 µM | NCI-H522 > 100 µM | HL-60 > 100 µM | COLO 205 > 100 µM | SK-MEL-2 > 100 µM | RXF 393 > 100 µM | SN12C > 100 µM | SF-295 > 100 µM | HT-29 > 100 µM

COc1cc(C(=O)C/C(CCC(=O)Nc2ccccc2[N+](=O)[O-])=N\NC(N)=O)ccc1O
inactive: Malme-3M > 100 µM | HOP-62 > 100 µM | TK-10 > 100 µM | DMS-114 > 100 µM | SK-MEL-28 > 100 µM | 786-0 > 100 µM | K562 > 100 µM | NCI-H522 > 100 µM | HL-60 > 100 µM | COLO 205 > 100 µM | SK-MEL-2 > 100 µM | RXF 393 > 100 µM | SN12C > 100 µM | HCT-116 > 100 µM | SF-295 > 100 µM | M14 > 100 µM | HT-29 > 100 µM

COC(=O)C1=C(C(=O)OC)C2C=CC1C1C(Cl)=C(Cl)C21 (stereo not given)
inactive: Malme-3M > 100 µM | HOP-62 > 100 µM | TK-10 > 100 µM | DMS-114 > 100 µM | SK-MEL-28 > 100 µM | 786-0 > 100 µM | K562 > 100 µM | NCI-H522 > 100 µM | HL-60 > 10 µM | COLO 205 > 100 µM | SK-MEL-2 > 100 µM | RXF 393 > 100 µM | SN12C > 100 µM | SF-295 > 100 µM | M14 > 100 µM | HT-29 > 100 µM

C1CCOC2(CCC3(CC2)OCCCCO3)OC1
inactive: Malme-3M > 100 µM | HOP-62 > 100 µM | TK-10 > 100 µM | DMS-114 > 100 µM | SK-MEL-28 > 100 µM | 786-0 > 100 µM | K562 > 100 µM | NCI-H522 > 100 µM | HL-60 > 100 µM | COLO 205 > 100 µM | SK-MEL-2 > 100 µM | RXF 393 > 100 µM | SN12C > 100 µM | HCT-116 > 100 µM | M14 > 100 µM
